Patent US20090111854A1, “1,2,4-TRIAZOLE ARYL N-OXIDES DERIVATIVES AS MODULATORS OF MGLUR5” (AstraZeneca AB, priority 2007, published 2009)

Assays:
human mGluR5d = biological target: T1, human mGluR5d (Homo sapiens, UniProt P41594); assay: FLIPR assay, functional assessment of mGluR5 antagonism (intracellular calcium mobilization); format: cell-based; conditions: cells expressing human mGluR5d; read-out: FLIPR hmGluR5d
T1 construct: expressed in transfected cells; The culture medium contains hygromycin B and Zeocin as selection agents; The separate IP3 assay names 'GHEK stably expressing the human mGluR5d'
Description: Functional Assessment of mGluR5 Antagonism it Cell Lines Expressing mGluR5D
The properties of the compounds of the invention can be analyzed using standard assays for pharmacological activity. Examples of glutamate receptor assays are well known in the art as described in for example Aramori et al., Neuron 8:757 (1992), Tanabe et al., Neuron 8:169 (1992), Miller et al., J. Neuroscience 15: 6103 (1995), Balazs, et al., J. Neurochemistry 69:151 (1997). The methodology described in these publications is to incorporated herein by reference. Conveniently, the compounds of the invention can be studied by means of an assay (FLIPR) that measures the mobilization of intracellular calcium, [Ca^2+]i in cells expressing mGluR5 or another assay (IP3) that measures inositol phosphate turnover.
Cells expressing human mGluR5d as described in WO97/05252 cultured in a mixture of high glucose DMEM with Glutamax (31966-021) (500 mL), 10% dialyzed fetal bovine serum (Hyclone #SH30079.03)(56 mL), 200 μg/mL Hygromycin B (Invitrogen 45-0430, 50 mg/mL) (2.2 mL), 200 μg/mL Zeocin (Invitrogen #R250-01; 100 mg/mL)(1.1 mL) are seeded at a density of 100,000 cells per well on collagen coated clear bottom 96-well plates with black sides and cells were allowed to adhere over night before experiments. All assays are done in a buffer containing 146 mM NaCl, 5 mM KCl, 1 mM MgCl2, 1 mM CaCl2, 20 mM HEPES, 1 mg/mL glucose and 1 mg/mL BSA Fraction IV (pH 7.4). Cell cultures in the 96-well plates are loaded for 60 minutes in the above mentioned buffer containing 6 μM of the acetoxymethyl ester form of the fluorescent calcium indicator fluo-3 (Molecular Probes, Eugene, Oreg.) in 0.025% pluronic acid (a proprietary, non-ionic surfactant polyol—CAS Number 9003-11-6). […] The fluorescence signal is sampled 50 times at 1-second intervals followed by 3 samples at 5-second intervals immediately after each of the two additions. Responses are measured as the difference between the peak heights of the response to agonist, less the background fluorescence within the sample period. […]

[1] = Determination of brain to plasma ratio in rat; format: in vivo, female Sprague Dawley rats; conditions: female, Sprague Dawley, brain and plasma, read-out: Brain/Plasma Ratio of compound in Rat
Protocol: Brain to plasma ratios are estimated in female Sprague Dawley rats. The compound is dissolved in water or another appropriate vehicle. For determination of brain to plasma ratio the compound is administrated as a subcutaneous, or an intravenous bolus injection, or an intravenous infusion, or an oral administration. At a predetermined time point after the administration a blood sample is taken with cardiac puncture. The rat is terminated by cutting the heart open, and the brain is immediately retained. The blood samples are collected in heparinized tubes and centrifuged within 30 minutes, in order to separate the plasma from the blood cells. The plasma is transferred to 96-well plates and stored at −20° C. until analysis. The brains are divided in half, and each half is placed in a pre-tarred tube and stored at −20° C. until analysis. Prior to the analysis, the brain samples are thawed and 3 mL/g brain tissue of distilled water is added to the tubes. The brain samples are sonicated in an ice bath until the samples are homogenized. Both brain and plasma samples are precipitated with acetonitrile. After centrifugation, the supernatant is diluted with 0.2% formic acid. Analysis is performed on a short reversed-phase HPLC column with rapid gradient elution and MSMS detection using a triple quadrupole instrument with electrospray ionisation and Selected Reaction Monitoring (SRM) acquisition. Liquid-liquid extraction may be used as an alternative sample clean-up. The samples are extracted, by shaking, to an organic solvent after addition of a suitable buffer. An aliquot of the organic layer is transferred to a new vial and evaporated to dryness under a stream of nitrogen. After reconstitution of the residuals the samples are ready for injection onto the HPLC column.

T1 sequence (P41594 21-942 isoform P41594-3 limits assumed): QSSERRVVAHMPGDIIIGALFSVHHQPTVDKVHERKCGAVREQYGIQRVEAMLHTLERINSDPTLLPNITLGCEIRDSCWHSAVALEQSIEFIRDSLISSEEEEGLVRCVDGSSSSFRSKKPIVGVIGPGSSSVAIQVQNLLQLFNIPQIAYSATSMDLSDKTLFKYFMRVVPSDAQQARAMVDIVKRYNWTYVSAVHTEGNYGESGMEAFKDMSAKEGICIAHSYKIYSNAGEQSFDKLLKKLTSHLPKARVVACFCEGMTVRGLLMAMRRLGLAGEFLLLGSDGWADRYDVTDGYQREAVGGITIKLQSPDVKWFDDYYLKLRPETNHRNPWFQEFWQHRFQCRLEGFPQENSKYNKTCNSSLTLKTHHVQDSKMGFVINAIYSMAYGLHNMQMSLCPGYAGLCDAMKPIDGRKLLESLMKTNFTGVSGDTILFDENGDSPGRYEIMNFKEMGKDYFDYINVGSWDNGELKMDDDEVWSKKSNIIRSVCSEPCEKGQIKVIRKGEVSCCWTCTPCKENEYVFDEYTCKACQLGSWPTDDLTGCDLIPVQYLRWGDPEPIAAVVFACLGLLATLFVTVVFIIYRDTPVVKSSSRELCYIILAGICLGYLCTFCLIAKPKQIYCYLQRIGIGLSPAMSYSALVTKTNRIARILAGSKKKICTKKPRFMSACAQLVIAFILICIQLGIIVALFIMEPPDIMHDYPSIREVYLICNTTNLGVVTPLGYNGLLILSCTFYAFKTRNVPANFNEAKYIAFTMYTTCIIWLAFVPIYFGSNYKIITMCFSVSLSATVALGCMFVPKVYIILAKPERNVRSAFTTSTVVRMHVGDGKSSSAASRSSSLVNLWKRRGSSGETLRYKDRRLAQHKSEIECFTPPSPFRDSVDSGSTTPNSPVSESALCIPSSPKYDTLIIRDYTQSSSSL

IC50 (human mGluR5d) [nM]	Kp [1]	SMILES
108	< 0.01	Cn1c(-c2ccc[n+]([O-])c2)nnc1N1CCC[C@@H]1c1nnn(-c2cccc(Cl)c2)n1 [Example 6, 3-(5-{(2R)-2-[2-(3-chlorophenyl)-2H-tetrazol-5-yl]pyrrolidin-1-yl}-4-methyl-4H-1,2,4-triazol-3-yl)pyridine 1-oxide]
81	0.01	C[C@@H](c1noc(-c2cccc(Cl)c2)n1)N(C)c1nnc(-c2cc[n+]([O-])cc2)n1C [Example 4, N-{(1S)-1-[5-(3-chlorophenyl)-1,2,4-oxadiazol-3-yl]ethyl}-N,4-dimethyl-5-(1-oxidopyridin-4-yl)-4H-1,2,4-triazol-3-amine]
49	< 0.015	Cn1c(-c2ccc[n+]([O-])c2)nnc1N1CCCC[C@@H]1c1nnn(-c2cccc(Cl)c2)n1 [Example 5, 3-(5-{(2R)-2-[2-(3-chlorophenyl)-2H-tetrazol-5-yl]piperidin-1-yl}-4-methyl-4H-1,2,4-triazol-3-yl)pyridine 1-oxide]
